# Assays:
# mIMCD3 Pkd1−/− cells = assay: Mouse cell derived cyst assay; type: cell-based; conditions: PKD KO mouse cell derived cyst forming assay; FIG. 13
# Description: Mouse cell derived cyst assays were performed as described in Booij, Tijmen H et al., SLAS discovery: advancing life sciences R & D vol. 22.8 (2017): 974-984, or as described below.
# Murine inner medullary collecting duct cell line (mIMCD3 Pkd1^−/− cells) • mIMCD3 Pkd1 KO cells were seeded in 384 wells plates in extracellular matrix. • 4 days after seeding, cultures were co-exposed to treatments and stimuli (2.5 μM forskolin); • After 72 h, cultures were fixed, stained for nuclei and actin cytoskeleton and imaged with 4× magnification; and • Image analysis of the 3D stack was done using Ominer™ image analysis software.
# nanoLuc TRAP1 = target: T1, nanoLuc TRAP1 (Homo sapiens, UniProt Q12931); assay: In-cell target engagement assay (NanoBRET) in SHSY5Y cells; type: cell-based; conditions: tracer probe-385, 1 μM; live SHSY5Y cells; FIG. 4
# T1 construct: expressed in transfected cells; host or cells: SHSY5Y cells, transient transfection with FuGENE HD
# T1 sequence (Q12931 60-704): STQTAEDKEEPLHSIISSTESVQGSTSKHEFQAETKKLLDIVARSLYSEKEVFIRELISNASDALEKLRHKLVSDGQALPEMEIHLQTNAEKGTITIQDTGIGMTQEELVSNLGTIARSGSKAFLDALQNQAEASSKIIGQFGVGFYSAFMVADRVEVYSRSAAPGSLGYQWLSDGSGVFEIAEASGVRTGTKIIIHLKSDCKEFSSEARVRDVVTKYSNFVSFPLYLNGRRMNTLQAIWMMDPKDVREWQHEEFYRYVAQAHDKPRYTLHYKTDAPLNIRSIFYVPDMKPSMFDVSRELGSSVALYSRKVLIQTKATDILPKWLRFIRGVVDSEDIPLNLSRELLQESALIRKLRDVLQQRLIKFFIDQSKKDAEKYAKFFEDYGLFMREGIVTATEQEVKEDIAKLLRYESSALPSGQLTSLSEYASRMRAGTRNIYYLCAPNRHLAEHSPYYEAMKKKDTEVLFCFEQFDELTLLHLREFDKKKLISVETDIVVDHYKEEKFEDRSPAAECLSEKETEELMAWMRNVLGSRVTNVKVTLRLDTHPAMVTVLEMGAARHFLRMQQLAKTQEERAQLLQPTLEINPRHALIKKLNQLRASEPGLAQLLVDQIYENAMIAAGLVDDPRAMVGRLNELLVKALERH
# Description: In-cell target engagement assays were performed as described in Robers M. B. et al. (2019) Quantitative, Real-Time Measurements of Intracellular Target Engagement Using Energy Transfer. In: Ziegler S., Waldmann H. (eds) Systems Chemical Biology. Methods in Molecular Biology, vol 1888. Humana Press, New York, N.Y.; Machleidt et al., ACS Chem. Biol. 2015, 10, 8, 1797-1804; or Vasta et al., Cell Chemical Biology 25, 206-214, Feb. 15, 2018; or as described herein.
# Below is a protocol for transient transfection of SHSY5Y cells with NanoLuc® fusions. • 1. Cultivate SHSY5Y cells appropriately prior to assay in MEM w NEAA supplemented with 10% FBS. • 2. Remove medium from cell flask via aspiration, trypsinize, and allow cells to dissociate from the flask. • 3. Neutralize trypsin using growth medium and pellet cells via centrifugation at 200 g for 5 minutes. • 4. Aspirate medium and re-suspend cells into a single cell suspension using complete cell culture medium. • 5. Adjust the cell density to 300K/mL in cell culture medium in a sterile, conical tube. • 6. Prepare lipid:DNA complexes as follows (this covers two assay plates, adjust numbers for more plates) • a. Prepare a 10 μg/mL solution of DNA in Opti-MEM without serum. This solution should contain the following ratios of carrier DNA and DNA encoding NanoLuc® fusion. • i. 5.0 μg/mL of Transfection Carrier DNA (pGEM) • ii. […]
smiles,measurement,setting,value
Cc1nn(C)c2sc(C(=O)Nc3ccc(F)c(S(=O)(=O)Nc4ccc(Cl)cc4)c3)cc12 [Compound 705],cyst formation,mIMCD3 Pkd1−/− cells,preventing cyst formation
same,displacement of the nanoBRET tracer molecule from nanoLuc TRAP1,nanoLuc TRAP1,displacing the nanoBRET tracer molecule

# From US20230174523A1, “BENZENESULFONAMIDE DERIVATIVES AS TRAP1 MODULATORS AND USES THEREOF” (Amathus Therapeutics, Inc., priority 2020, published 2023)
